# Biological target: Beta-3 Adrenergic Receptor (Homo sapiens (Human), UniProt P13945)
# Test: Homogeneous Time-Resolved Fluorescence (HTRF) cAMP antagonist assay, IC50 determination
# Format: cell-based
# Details: CHO-K1 cells stably expressing recombinant receptor, isoproterenol at EC90
# Method in brief: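 CHO-K1 cells stably expressing receptor, 1500 cells/well, preincubated briefly with 10-point 5-fold compound series (top final typically 10 or 100 μM) in PBS with 1 mM IBMX, then challenged with isoproterenol at EC90 for 1 h at room temperature. cAMP read by HTRF against on-plate standard curve; IC50 from dose-response.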
# Chain of Beta-3 Adrenergic Receptor (P13945 whole entry, species assumed): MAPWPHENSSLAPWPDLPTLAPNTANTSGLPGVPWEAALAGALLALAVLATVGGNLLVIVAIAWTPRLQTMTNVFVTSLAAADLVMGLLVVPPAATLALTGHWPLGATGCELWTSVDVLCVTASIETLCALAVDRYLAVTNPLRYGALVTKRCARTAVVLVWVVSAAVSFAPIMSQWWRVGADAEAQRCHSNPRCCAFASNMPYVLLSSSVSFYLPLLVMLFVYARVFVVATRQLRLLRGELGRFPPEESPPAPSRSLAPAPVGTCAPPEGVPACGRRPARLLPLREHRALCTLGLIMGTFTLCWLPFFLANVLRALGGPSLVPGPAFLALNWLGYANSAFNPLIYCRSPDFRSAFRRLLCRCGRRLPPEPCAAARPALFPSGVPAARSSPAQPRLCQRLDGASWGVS
row,Compound,IC50 [nM]
1,"CC(C)(C)NS(=O)(=O)c1cccc(OC[C@@H](O)CNC2COC3(CCN(S(=O)(=O)c4ccc5ccccc5c4)CC3)C2)c1 (stereo partly drawn) [Compound 94, N-tert-butyl-3-((2S)-2-hydroxy-3-(8-(naphthalen-2-ylsulfonyl)-1-oxa-8-azaspiro[4.5]decan-3-ylamino)propoxy)benzenesulfonamide]",59.8
2,"CCNS(=O)(=O)c1cccc(OC[C@@H](O)CN[C@H]2COC3(CCN(S(=O)(=O)c4cnc5cc[nH]c5c4)CC3)C2)c1 [Compound 520, 3-((S)-3-((R)-8-(1H-pyrrolo[3,2-b]pyridin-6-ylsulfonyl)-1-oxa-8-azaspiro[4.5]decan-3-ylamino)-2-hydroxypropoxy)-N-ethylbenzenesulfonamide]",14.6
3,"CCNS(=O)(=O)c1cccc(OC[C@@H](O)CNC2COC3(CCN(S(=O)(=O)c4ccc(Cl)c5nonc45)CC3)C2)c1 (stereo partly drawn) [Compound 235, 3-((2S)-3-(8-(7-chlorobenzo[c][1,2,5]oxadiazol-4-ylsulfonyl)-1-oxa-8-azaspiro[4.5]decan-3-ylamino)-2-hydroxypropoxy)-N-ethylbenzenesulfonamide]",108
4,"CCn1cc(S(=O)(=O)N2CCC3(CC2)C[C@@H](NC[C@H](O)COc2cccc(S(N)(=O)=O)c2)CO3)c(=O)c2ccc(F)cc21 [Compound 543, 3-((S)-3-((R)-8-(1-ethyl-7-fluoro-4-oxo-1,4-dihydroquinolin-3-ylsulfonyl)-1-oxa-8-azaspiro[4.5]decan-3-ylamino)-2-hydroxypropoxy)benzenesulfonamide]",66.7
5,"CCNS(=O)(=O)c1cccc(OC[C@@H](O)CN[C@H]2COC3(CCN(S(=O)(=O)c4cnc5c(c4)N(C)CCO5)CC3)C2)c1 [Compound 456, N-ethyl-3-((S)-2-hydroxy-3-((R)-8-(1-methyl-2,3-dihydro-1H-pyrido[2,3-b][1,4]oxazin-7-ylsulfonyl)-1-oxa-8-azaspiro[4.5]decan-3-ylamino)propoxy)benzenesulfonamide]",16.4
6,"CCNS(=O)(=O)c1cccc(OC[C@@H](O)CNC2COC3(CCN(S(=O)(=O)c4cnn(-c5ccccc5)c4C)CC3)C2)c1 (stereo partly drawn) [Compound 230, N-ethyl-3-((2S)-2-hydroxy-3-(8-(5-methyl-1-phenyl-1H-pyrazol-4-ylsulfonyl)-1-oxa-8-azaspiro[4.5]decan-3-ylamino)propoxy)benzenesulfonamide]",85.4
7,"CNS(=O)(=O)c1cccc(OC[C@@H](O)CNC2COC3(CCN(S(=O)(=O)c4ccc(Cl)c(C)c4)CC3)C2)c1 (stereo partly drawn) [Compound 151, 3-((2S)-3-(8-(4-chloro-3-methylphenylsulfonyl)-1-oxa-8-azaspiro[4.5]decan-3-ylamino)-2-hydroxypropoxy)-N-methylbenzenesulfonamide]",5.38
8,"CNS(=O)(=O)c1cccc(OC[C@@H](O)CN[C@H]2COC3(CCN(c4nccc(C)n4)CC3)C2)c1 [Compound 575, 3-((S)-2-hydroxy-3-((R)-8-(4-methylpyrimidin-2-yl)-1-oxa-8-azaspiro[4.5]decan-3-ylamino)propoxy)-N-methylbenzenesulfonamide]",216
9,"CNS(=O)(=O)c1cccc(OC[C@@H](O)CNC2COC3(CCN(S(=O)(=O)c4cn(C)cn4)CC3)C2)c1 (stereo partly drawn) [Compound 194, 3-((2S)-2-hydroxy-3-(8-(1-methyl-1H-imidazol-4-ylsulfonyl)-1-oxa-8-azaspiro[4.5]decan-3-ylamino)propoxy)-N-methylbenzenesulfonamide]",97.6
10,"CNS(=O)(=O)c1cccc(OC[C@@H](O)CNC2COC3(CCN(S(=O)(=O)c4ccc5c(c4)CCCC5)CC3)C2)c1 (stereo partly drawn) [Compound 16, 3-((2S)-2-hydroxy-3-(8-(5,6,7,8-tetrahydronaphthalen-2-ylsulfonyl)-1-oxa-8-azaspiro[4.5]decan-3-ylamino)propoxy)-N-methylbenzenesulfonamide]",7.47
11,"CNS(=O)(=O)c1cccc(OC[C@@H](O)CNC2COC3(CCN(S(=O)(=O)c4cc(Cl)ccc4Cl)CC3)C2)c1 (stereo partly drawn) [Compound 140, 3-((2S)-3-(8-(2,5-dichlorophenylsulfonyl)-1-oxa-8-azaspiro[4.5]decan-3-ylamino)-2-hydroxypropoxy)-N-methylbenzenesulfonamide]",11.3
12,"CNS(=O)(=O)c1cccc(OC[C@@H](O)CN[C@H]2COC3(CCN(c4ncc(Cc5ccccc5)cn4)CC3)C2)c1 [Compound 570, 3-((S)-3-((R)-8-(5-benzylpyrimidin-2-yl)-1-oxa-8-azaspiro[4.5]decan-3-ylamino)-2-hydroxypropoxy)-N-methylbenzenesulfonamide]",143
13,"CNS(=O)(=O)c1cccc(OC[C@@H](O)CN[C@H]2COC3(CCN(S(=O)(=O)c4cnc5cc(F)ccc5c4O)CC3)C2)c1 [Compound 539, 3-((S)-3-((R)-8-(7-fluoro-4-hydroxyquinolin-3-ylsulfonyl)-1-oxa-8-azaspiro[4.5]decan-3-ylamino)-2-hydroxypropoxy)-N-methylbenzenesulfonamide]",26
14,"CNS(=O)(=O)c1cccc(OC[C@@H](O)CNC2COC3(CCN(S(=O)(=O)c4cc(S(C)(=O)=O)ccc4Cl)CC3)C2)c1 (stereo partly drawn) [Compound 203, 3-((2S)-3-(8-(2-chloro-5-(methylsulfonyl)phenylsulfonyl)-1-oxa-8-azaspiro[4.5]decan-3-ylamino)-2-hydroxypropoxy)-N-methylbenzenesulfonamide]",14.9
15,"CNS(=O)(=O)c1cccc(OC[C@@H](O)CN[C@H]2COC3(CCN(S(=O)(=O)c4cc5c(nc4C)OCCN5C)CC3)C2)c1 [Compound 466, 3-((S)-3-((R)-8-(1,6-dimethyl-2,3-dihydro-1H-pyrido[2,3-b][1,4]oxazin-7-ylsulfonyl)-1-oxa-8-azaspiro[4.5]decan-3-ylamino)-2-hydroxypropoxy)-N-methylbenzenesulfonamide]",101
16,"CNS(=O)(=O)c1cccc(OC[C@@H](O)CN[C@H]2COC3(CCN(S(=O)(=O)c4cc5c(nc4N(C)C)OCCN5C)CC3)C2)c1 [Compound 453, 3-((S)-3-((R)-8-(6-(dimethylamino)-1-methyl-2,3-dihydro-1H-pyrido[2,3-b][1,4]oxazin-7-ylsulfonyl)-1-oxa-8-azaspiro[4.5]decan-3-ylamino)-2-hydroxypropoxy)-N-methylbenzenesulfonamide]",115
17,"CNS(=O)(=O)c1cccc(OC[C@@H](O)CN[C@H]2COC3(CCN(S(=O)(=O)c4cnc5[nH]cnc5c4C)CC3)C2)c1 [Compound 519, 3-((S)-2-hydroxy-3-((R)-8-(7-methyl-3H-imidazo[4,5-b]pyridin-6-ylsulfonyl)-1-oxa-8-azaspiro[4.5]decan-3-ylamino)propoxy)-N-methylbenzenesulfonamide]",68.4

# The next lines start with the values.
row,IC50 [nM],Compound
1,475,"CNS(=O)(=O)c1cccc(OC[C@@H](O)CNC2COC3(CCN(S(=O)(=O)c4cccc(CN)c4)CC3)C2)c1 (stereo partly drawn) [Compound 389, 3-((2S)-3-(8-(3-(aminomethyl)phenylsulfonyl)-1-oxa-8-azaspiro[4.5]decan-3-ylamino)-2-hydroxypropoxy)-N-methylbenzenesulfonamide]"
2,9.09,"CNS(=O)(=O)c1cccc(OC[C@@H](O)CNC2COC3(CCN(S(=O)(=O)c4cccc(-c5cc[nH]n5)c4)CC3)C2)c1 (stereo partly drawn) [Compound 84, 3-((2S)-3-(8-(3-(1H-pyrazol-3-yl)phenylsulfonyl)-1-oxa-8-azaspiro[4.5]decan-3-ylamino)-2-hydroxypropoxy)-N-methylbenzenesulfonamide]"
3,4.53,"CNS(=O)(=O)c1cccc(OC[C@@H](O)CN[C@@H]2COC3(CCN(S(=O)(=O)c4ccc5ccccc5c4)CC3)C2)c1 [Compound 29, 3—((S)-2-hydroxy-3-((S)-8-(naphthalen-2-ylsulfonyl)-1-oxa-8-azaspiro[4.5]decan-3-ylamino)propoxy)-N-methylbenzenesulfonamide]"
4,11,"CNS(=O)(=O)c1cccc(OC[C@@H](O)CN[C@@H]2COC3(CCN(S(=O)(=O)c4cc(-c5ccc(CN)cc5)ccc4OC)CC3)C2)c1 [Compound 384, 3-((S)-3-((S)-8-(4′-(aminomethyl)-4-methoxybiphenyl-3-ylsulfonyl)-1-oxa-8-azaspiro[4.5]decan-3-ylamino)-2-hydroxypropoxy)-N-methylbenzenesulfonamide]"
5,28.5,"CNS(=O)(=O)c1cccc(OC[C@@H](O)CNC2COC3(CCN(S(=O)(=O)c4cncc(-c5ccc(CN)cc5)c4)CC3)C2)c1 (stereo partly drawn) [Compound 341, 3-((2S)-3-(8-(5-(4-(aminomethyl)phenyl)pyridin-3-ylsulfonyl)-1-oxa-8-azaspiro[4.5]decan-3-ylamino)-2-hydroxypropoxy)-N-methylbenzenesulfonamide]"
6,30.8,"CNS(=O)(=O)c1cccc(OC[C@@H](O)CNC2COC3(CCN(S(=O)(=O)c4cc(OC)ccc4C#N)CC3)C2)c1 (stereo partly drawn) [Compound 263, 3-((2S)-3-(8-(2-cyano-5-methoxyphenylsulfonyl)-1-oxa-8-azaspiro[4.5]decan-3-ylamino)-2-hydroxypropoxy)-N-methylbenzenesulfonamide]"
7,15.7,"CNS(=O)(=O)c1cccc(OC[C@@H](O)CN[C@@H]2COC3(CCN(S(=O)(=O)c4cncc(-c5ccc(CN)cc5)c4)CC3)C2)c1 [Compound 374, 3-((S)-3-((S)-8-(5-(4-(aminomethyl)phenyl)pyridin-3-ylsulfonyl)-1-oxa-8-azaspiro[4.5]decan-3-ylamino)-2-hydroxypropoxy)-N-methylbenzenesulfonamide]"
8,25.6,"CNS(=O)(=O)c1cccc(OC[C@@H](O)CNC2COC3(CCN(S(=O)(=O)c4ccc(Cl)cc4Cl)CC3)C2)c1 (stereo partly drawn) [Compound 158, 3-((2S)-3-(8-(2,4-dichlorophenylsulfonyl)-1-oxa-8-azaspiro[4.5]decan-3-ylamino)-2-hydroxypropoxy)-N-methylbenzenesulfonamide]"
9,35.2,"CNS(=O)(=O)c1cccc(OC[C@@H](O)CNC2COC3(CCN(S(=O)(=O)c4cccc(-c5ccc(CNC(=O)C(N)=O)cc5)c4)CC3)C2)c1 (stereo partly drawn) [Compound 354, N^1-((3′-(3-((S)-2-hydroxy-3-(3-(N-methylsulfamoyl)phenoxy)propylamino)-1-oxa-8-azaspiro[4.5]decan-8-ylsulfonyl)biphenyl-4-yl)methyl)oxalamide]"

# Source: patent US11987588B2, “Modulators of the beta-3 adrenergic receptor useful for the treatment or prevention of heart failure and disorders related thereto” (Arena Pharmaceuticals, Inc., priority 2017, dated 2024)
